Source: the supplement of paper PMC11061612

Columns and labels:
[1] = tested on: TE-5 (Esophageal Squamous Cell Carcinoma); assay: combination Emax (second highest fraction inhibited in the dose matrix, 72 h); higher = more inhibition; extreme values may be limits of the assay
Outline: (§1)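 Cell lines grown in DMEM/F12 or RPMI with 10% FBS were plated in 1536-well plates and held 24 hours at 37°C, 5% CO2 before 72 hours of exposure to two-drug dose matrices, with DMSO typically at 0.2%. CellTiter-Glo 2.0 luminescence gave viability, which was converted to inhibition. Vehicle wells were set to 0 and blank wells to 1. Combination Emax is the second-highest inhibition in the matrix, and Bliss excess is the observed combination effect minus the expected EA + EB − EA·EB, where EA and EB are the single-agent effects.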

[2] = tested on: KARPAS-620 (Plasma Cell Myeloma); assay: as above
Outline: as §1

[3] = tested on: EM-2 (Chronic Myelogenous Leukemia); assay: as above
Outline: as §1

[4] = tested on: SUIT-2 (Pancreatic Carcinoma); assay: as above
Outline: as §1

[5] = tested on: KARPAS-1106P (B-Cell Non-Hodgkin's Lymphoma); assay: as above
Outline: as §1

[6] = tested on: ES7 (Ewing's Sarcoma); assay: as above
Outline: as §1

[7] = tested on: NCI-H1694 (Small Cell Lung Carcinoma); assay: as above
Outline: as §1

[8] = tested on: RH-1 (Ewing's Sarcoma); assay: as above
Outline: as §1

[9] = tested on: U-266 (Plasma Cell Myeloma); assay: as above
Outline: as §1

[10] = tested on: DB (B-Cell Non-Hodgkin's Lymphoma); assay: Bliss excess, mean over the matrix (fraction); higher = more synergy
Outline: as §1

[11] = tested on: SW1783 (Low Grade Glioma); assay: as above
Outline: as §1

[12] = tested on: KARPAS-1106P (B-Cell Non-Hodgkin's Lymphoma); assay: as above
Outline: as §1

[13] = tested on: NCI-H2369 (Mesothelioma); assay: as above
Outline: as §1

[14] = tested on: ES7 (Ewing's Sarcoma); assay: as above
Outline: as §1

[15] = tested on: NCI-H1694 (Small Cell Lung Carcinoma); assay: as above
Outline: as §1

[16] = tested on: OCI-AML2 (Acute Myeloid Leukemia); assay: as above
Outline: as §1

[17] = tested on: COR-L95 (Small Cell Lung Carcinoma); assay: as above
Outline: as §1

[18] = tested on: J82 (Bladder Carcinoma); assay: as above
Outline: as §1

[19] = tested on: TGBC24TKB (Biliary Tract Carcinoma); assay: as above
Outline: as §1

[20] = tested on: SW1990 (Pancreatic Carcinoma); assay: as above
Outline: as §1
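Throughout, for Bliss excess, mean over the matrix: after 72 h of two-drug dosing.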

Row | SMILES | combination Emax [1] | combination Emax [2] | combination Emax [3] | combination Emax [4] | combination Emax [5] | combination Emax [6] | combination Emax [7] | combination Emax [8] | combination Emax [9] | Bliss excess [10] | Bliss excess [11] | Bliss excess [12] | Bliss excess [13] | Bliss excess [14] | Bliss excess [15] | Bliss excess [16] | Bliss excess [17] | Bliss excess [18] | Bliss excess [19] | Bliss excess [20]
1 | Cc1c2c(nn1C)CSCc1cc(n(C)n1)CSc1cc(c3ccccc3c1)OCCCc1c(C(=O)O)n(C)c3c-2c(Cl)ccc13 [AZD5991] + C1CN(CCC1(C(=O)N[C@@H](CCO)C2=CC=C(C=C2)Cl)N)C3=NC=NC4=C3C=CN4 [Capivasertib] (first compound max 1 µM, 7x7, partner max 3 µM) | 0.329 | 1 | 0.409 | 0.149 | 0.901 | 0.825 | 1 | 0.795 | 0.97 | 0.0079 | -0.0145 | 0.0188 | -0.012 | 0.112 | -0.0142 | 0.0385 | 0.0071 | -0.0046 | 0.0066 | -0.0314
2 | CN(C)CCCOc1ccc(-c2ccc3ncc4c(c3c2)n(C2CCOCC2)c(=O)n4C)cn1 [AZD0156] + C[C@@H]1COCCN1C2=NC(=NC(=C2)C3(CC3)[S@](=N)(=O)C)C4=C5C=CNC5=NC=C4 [AZD6738] (first compound max 1 µM, 7x7, partner max 10 µM) | 0.481 | 0.644 | 0.949 | 0.71 | 0.752 | 0.846 | 0.711 | 0.938 | 0.523 | -0.0151 | -0.0435 | 0.0462 | -0.0253 | 0.0225 | 0.0229 | -0.051 | -0.0363 | 0 | -0.0165 | -0.0202
3 | NC1(C(=O)N[C@@H](CCO)c2ccc(Cl)cc2)CCN(c2ncnc3[nH]ccc23)CC1 [Capivasertib] + C[C@@H]1COCCN1C2=NC(=NC(=C2)C3(CC3)[S@](=N)(=O)C)C4=C5C=CNC5=NC=C4 [AZD6738] (first compound max 10 µM, 7x7, partner max 10 µM) | 0.721 | 0.757 | 0.973 | 0.493 | 0.694 | 0.889 | 0.682 | 0.97 | 0.365 | -0.0769 | -0.0511 | -0.0661 | -0.0127 | -0.055 | -0.0412 | -0.0474 | -0.0644 | -0.065 | -0.0104 | -0.0259
4 | COc1nnc2ccc(N3CCC(c4ccc(OCCN5CCN(C)C(=O)[C@H]5C)cc4)CC3)nn12 [AZD5153] + C=CCn1c(=O)c2cnc(Nc3ccc(N4CCN(C)CC4)cc3)nc2n1-c1cccc(C(C)(C)O)n1 [AZD1775] (first compound max 1 µM, partner max 1 µM) | 0.383 | 0.764 | 0.986 | 0.693 | 0.884 | 0.795 | 0.714 | 0.997 | 0.637 | -0.0996 | -0.0531 | -0.0966 | -0.0392 | -0.0364 | -0.0205 | -0.0293 | 0.0012 | 0.0514 | -0.0367 | -0.0567
5 | C=CCn1c(=O)c2cnc(Nc3ccc(N4CCN(C)CC4)cc3)nc2n1-c1cccc(C(C)(C)O)n1 [AZD1775] + O=C(c1cc(Cc2n[nH]c(=O)c3ccccc23)ccc1F)N1CCN(C(=O)C2CC2)CC1 [Olaparib] (first compound max 1 µM, partner max 10 µM) | 0.411 | 0.489 | 0.938 | 0.607 | 0.872 | – | 0.404 | 1 | 0.763 | -0.0788 | -0.0028 | -0.0513 | -0.084 | -0.0453 | -0.036 | 0.0249 | -0.101 | -0.025 | -0.0499 | -0.0697
6 | CC(=O)Nc1cccc(-n2c(=O)n(C3CC3)c(=O)c3c(Nc4ccc(I)cc4F)n(C)c(=O)c(C)c32)c1 [Trametinib] + Cc1nc(-c2cn3c(n2)-c2ccc(-c4cnn(C(C)(C)C(N)=O)c4)cc2OCC3)n(C(C)C)n1 [Taselisib] (first compound max 1 µM, 7x7, partner max 10 µM) | 0.767 | 1 | 0.935 | 0.702 | 0.749 | 0.673 | 0.324 | 0.594 | 0.796 | -0.004 | -0.027 | 0.088 | 0.046 | 0.0164 | 0.0583 | 0.0227 | 0.0096 | 0.0623 | 0.196 | 0.148
7 | COc1cc2ncnc(Nc3ccc(F)c(Cl)c3)c2cc1OCCCN1CCOCC1 [Gefitinib] + CC(C)n1c(=O)n(C)c2cnc3cc(F)c(-c4ccc(OCCCN5CCCCC5)nc4)cc3c21 [AZD1390] (first compound max 10 µM, 7x7, partner max 0.3 µM) | 0.15 | 0.141 | 0.174 | 0.111 | 0.267 | 0.385 | 0.19 | 0.188 | 0.124 | 0.0332 | -0.0571 | -0.0393 | -0.0614 | -0.0916 | – | -0.041 | -0.0119 | -0.12 | -0.0379 | -0.0441
8 | C[C@@H](c1ccc2nccn2c1)n1nnc2ncc(-c3cnn(C)c3)nc21 [Savolitinib] + CN(CC[C@H](CSC1=CC=CC=C1)NC2=C(C=C(C=C2)S(=O)(=O)NC(=O)C3=CC=C(C=C3)N4CCC(CC4)[C@H](C5=CC=CC=C5C6=CC=C(C=C6)Cl)O)S(=O)(=O)C(F)(F)F)CCO [AZD4320] (first compound max 1 µM, 7x7, partner max 1 µM) | – | – | 0.971 | 0.241 | – | – | 0.622 | 0.488 | – | – | – | – | -0.0522 | – | -0.042 | – | – | 0.0168 | 0.0233 | –
9 | Cc1c2c(nn1C)CSCc1cc(n(C)n1)CSc1cc(c3ccccc3c1)OCCCc1c(C(=O)O)n(C)c3c-2c(Cl)ccc13 [AZD5991] + C=CCn1c(=O)c2cnc(Nc3ccc(N4CCN(C)CC4)cc3)nc2n1-c1cccc(C(C)(C)O)n1 [AZD1775] (first compound max 1 µM, partner max 1 µM) | 0.536 | 1 | 0.983 | 0.555 | 0.997 | 0.732 | 0.961 | 0.994 | 0.99 | -0.0165 | – | -0.011 | 0.0049 | 0.0155 | -0.0247 | -0.0366 | -0.0637 | -0.0372 | -0.0375 | -0.024
10 | C=CCn1c(=O)c2cnc(Nc3ccc(N4CCN(C)CC4)cc3)nc2n1-c1cccc(C(C)(C)O)n1 [AZD1775] + C1CN(CCC1(C(=O)N[C@@H](CCO)C2=CC=C(C=C2)Cl)N)C3=NC=NC4=C3C=CN4 [Capivasertib] (first compound max 3 µM, partner max 3 µM) | 0.66 | 0.857 | 0.948 | 0.586 | 0.909 | 0.808 | – | 0.98 | 0.795 | -0.0264 | -0.0787 | 0.0135 | 0.0035 | – | – | -0.0405 | 0.0297 | -0.0184 | -0.034 | -0.0209
11 | CCc1c2c(nc3ccc(O)cc13)-c1cc3c(c(=O)n1C2)COC(=O)[C@]3(O)CC [SN-38] + O=C(c1cc(Cc2n[nH]c(=O)c3ccccc23)ccc1F)N1CCN(C(=O)C2CC2)CC1 [Olaparib] (first compound max 0.3 µM, 7x7, partner max 10 µM) | 0.758 | 0.25 | 1 | 0.728 | 0.943 | 1 | – | 1 | 0.367 | 0.0534 | 0.061 | -0.0008 | 0.0128 | 0.112 | – | 0.0787 | 0.0044 | 0.0532 | 0.0421 | 0.0001
12 | CC(=O)c1c(C)c2cnc(Nc3ccc(N4CCNCC4)cn3)nc2n(C2CCCC2)c1=O [Palbociclib] + CN(CC[C@H](CSC1=CC=CC=C1)NC2=C(C=C(C=C2)S(=O)(=O)NC(=O)C3=CC=C(C=C3)N4CCC(CC4)[C@H](C5=CC=CC=C5C6=CC=C(C=C6)Cl)O)S(=O)(=O)C(F)(F)F)CCO [AZD4320] (first compound max 10 µM, 7x7, partner max 1 µM) | – | – | 0.95 | 0.354 | – | – | 0.941 | 0.684 | – | – | – | – | -0.0408 | – | 0.0632 | – | – | -0.0667 | -0.0727 | –
13 | COc1nnc2ccc(N3CCC(c4ccc(OCCN5CCN(C)C(=O)[C@H]5C)cc4)CC3)nn12 [AZD5153] + CN(CC[C@H](CSC1=CC=CC=C1)NC2=C(C=C(C=C2)S(=O)(=O)NC(=O)C3=CC=C(C=C3)N4CCC(CC4)[C@H](C5=CC=CC=C5C6=CC=C(C=C6)Cl)O)S(=O)(=O)C(F)(F)F)CCO [AZD4320] (first compound max 1 µM, 7x7, partner max 1 µM) | – | – | 0.988 | 0.306 | – | – | 1 | 0.49 | – | – | – | – | -0.0032 | – | 0.0607 | – | – | 0.0292 | 0.0326 | –
14 | CN(C)CCCOc1ccc(-c2ccc3ncc4c(c3c2)n(C2CCOCC2)c(=O)n4C)cn1 [AZD0156] + O=C(c1cc(Cc2n[nH]c(=O)c3ccccc23)ccc1F)N1CCN(C(=O)C2CC2)CC1 [Olaparib] (first compound max 3 µM, partner max 3 µM) | 0.302 | 0.612 | 0.306 | 0.195 | 0.551 | 0.853 | – | 0.649 | 0.171 | 0.149 | 0.007 | 0.0471 | -0.0455 | 0.291 | – | 0.171 | -0.11 | -0.0375 | 0.0104 | -0.0285
